Data reported in PubChem BioAssay AID1083 (University of Pittsburgh Molecular Library Screening Center, 2008).
Values joined by “and” are separate entries in the source; they are usually repeats but may differ in a detail not shown here. Equal values may be shown once. Active and inactive are the calls of the source. No rule for the calls is given here.

Target: Serine/threonine-protein kinase PLK1 (Homo sapiens) (UniProt P53350)
Test: PLK1 polo-box domain peptide-binding inhibitors, SAR follow-up, biochemical, fluorescence polarization, purchased analogs, concentration response (AID 1083)
Settings: Plk1 PBD peptide binding

Sequence of Serine/threonine-protein kinase PLK1 (Homo sapiens) (P53350 whole entry, looked up, the tested form may be a part): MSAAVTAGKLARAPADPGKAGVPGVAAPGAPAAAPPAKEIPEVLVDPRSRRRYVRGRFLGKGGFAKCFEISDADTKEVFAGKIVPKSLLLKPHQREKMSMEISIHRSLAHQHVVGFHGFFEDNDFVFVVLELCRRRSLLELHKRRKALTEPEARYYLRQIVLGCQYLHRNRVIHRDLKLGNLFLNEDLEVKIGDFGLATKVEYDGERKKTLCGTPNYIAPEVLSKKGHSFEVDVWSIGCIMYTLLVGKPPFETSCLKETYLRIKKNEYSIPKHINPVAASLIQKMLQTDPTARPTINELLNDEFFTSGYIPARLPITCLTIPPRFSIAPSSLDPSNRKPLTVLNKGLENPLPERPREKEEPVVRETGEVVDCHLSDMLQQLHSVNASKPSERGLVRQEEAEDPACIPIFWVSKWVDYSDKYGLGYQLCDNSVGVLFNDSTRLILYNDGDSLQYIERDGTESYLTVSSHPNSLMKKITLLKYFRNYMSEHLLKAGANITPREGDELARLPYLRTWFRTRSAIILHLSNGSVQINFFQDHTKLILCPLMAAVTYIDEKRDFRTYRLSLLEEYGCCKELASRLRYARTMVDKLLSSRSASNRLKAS

Row | SMILES | IC50
1 | CCCCCC(=O)N(CN1C(=O)c2ccccc2C1=O)c1ccccc1OC | > 50 µM (inactive)
2 | CCOC(=O)c1ccc(NC(=O)c2cc3ccccc3c(=O)o2)cc1 | > 50 µM (inactive)
3 | CCN(CC)CCOC(=O)c1ccc(N=Cc2c(O)[nH]c(=O)[nH]c2=O)cc1 | > 50 µM (inactive)
4 | CC(=O)N(/N=C1\Sc2ccccc2C1=O)c1ccc(C)cc1C | > 50 µM (inactive)
5 | Cn1c(=O)c2nc(-c3ccccc3)c(=O)n(C)c2n(C)c1=O | > 50 µM (inactive)
6 | CCc1ccc(-c2nc3c(=O)n(C)c(=O)nc-3n(CC)n2)cc1 | 0.786 µM and > 50 µM (inactive)
7 | CCOC(=O)c1ccc(NC(=O)c2cncc(Br)c2)cc1 | > 50 µM (inactive)
8 | CCOC(=O)c1ccc(NC(=O)C2Cc3ccccc3C(=O)O2)cc1 (configuration not stated) | > 50 µM (inactive)
9 | CCOC(=O)c1ccc(NC(=O)c2ccc3snnc3c2)cc1 | > 50 µM (inactive)
10 | COc1ccccc1N(/C=C1\Sc2ccccc2C1=O)C(C)=O | > 50 µM (inactive)
11 | O=c1[nH]c(=O)c2nc(-c3ccc(Cl)cc3)cnc2[nH]1 | > 50 µM (inactive)
12 | CC(=O)Oc1ccccc1N(/C=C1\Sc2ccccc2C1=O)C(C)=O | > 50 µM (inactive)
13 | O=C1NC(=O)C(=Cc2cccn2-c2ccc([N+](=O)[O-])cc2)C(=O)N1 | > 50 µM (inactive)
14 | CC(=O)c1ccc(N(CN2C(=O)c3ccc([N+](=O)[O-])cc3C2=O)C(C)=O)cc1 | > 50 µM (inactive)
15 | Cn1c(=O)[nH]c2nnc(-c3ccccc3)nc2c1=O | > 50 µM (inactive)
16 | CCOC(=O)c1ccc(N=Cc2c(O)n(Cc3ccc4c(c3)OCO4)c(=O)[nH]c2=O)cc1 | > 50 µM (inactive)
17 | Cn1c(=O)[nH]c2nnc(-c3ccc(F)cc3)nc2c1=O | > 50 µM (inactive)
18 | O=C1NC(=O)C(=Cc2ccccc2OCCOc2ccccc2)C(=O)N1 | > 50 µM (inactive)
19 | CCCCCOC(=O)c1ccc(NC(=O)c2ccc([N+](=O)[O-])cc2)cc1 | > 50 µM (inactive)
20 | CCOC(=O)c1ccc(N=C(c2ccccc2)c2c(O)n(C)c(=O)n(C)c2=O)cc1 | > 50 µM (inactive)
21 | CCn1c(N/C(O)=C/C(O)(C(F)(F)F)C(F)(F)F)nc2ccccc21 | > 50 µM (inactive)

Row | SMILES | IC50
22 | CCCOC(=O)c1ccc(NC(=O)c2cc(-c3cccs3)nc3c(C)c(Cl)ccc23)cc1 | > 50 µM (inactive)
23 | CC(=O)N(CN1C(=O)c2ccc([N+](=O)[O-])cc2C1=O)c1ccc(Oc2ccccc2)cc1 | > 50 µM (inactive)
24 | CCOC(=O)c1ccc(N=Cc2c(O)n(-c3ccc(C)cc3)c(=O)[nH]c2=O)cc1 | > 50 µM (inactive)
25 | CCn1nc(-c2ccccc2Cl)nc2c(=O)n(C)c(=O)nc1-2 | 1.55 µM
26 | CC(=O)N(CN1C(=O)c2ccccc2C1=O)c1ccc(C)c(Cl)c1 | > 50 µM (inactive)
27 | Cn1c(=O)c2nc(-c3ccccc3)c(-c3ccccc3)nc2n(C)c1=O | > 50 µM (inactive)
28 | COc1ccc(N(/N=C2\Sc3ccccc3C2=O)C(C)=O)cc1 | 15.2 µM
29 | CCOC(=O)c1ccc(NC(=O)c2c(C)cc(=O)oc2C)cc1 | > 50 µM (inactive)
30 | CC(=O)N(CN1C(=O)c2ccccc2C1=O)c1ccc(Br)cc1 | > 50 µM (inactive)
31 | Cn1c(=O)[nH]c2nnc(-c3ccc(Cl)cc3)nc2c1=O | > 50 µM (inactive)
32 | CCOC(=O)c1ccc(NC(=O)C2CC(=O)NC(=NC)S2)cc1 (configuration not stated) | > 50 µM (inactive)
33 | CCCOC(=O)c1ccc(NC(=O)c2ccc(OC)c([N+](=O)[O-])c2)cc1 | > 50 µM (inactive)
34 | CCOC(=O)c1ccc(N=Cc2c(O)n(-c3cccc(C)c3)c(=O)[nH]c2=O)cc1 | > 50 µM (inactive)
35 | CCOC(=O)c1ccc(N=Cc2c(O)n(-c3ccc(OCC)cc3)c(=O)[nH]c2=O)cc1 | > 50 µM (inactive)
36 | CCn1nc(-c2cccc(Cl)c2)nc2c(=O)n(C)c(=O)nc1-2 | 0.282 µM and > 50 µM (inactive)
37 | CC(=O)N(CN1C(=O)c2ccccc2C1=O)c1cc(C)ccc1C | > 50 µM (inactive)
38 | COC(=O)c1ccc(N(/N=C2\Sc3ccccc3C2=O)C(C)=O)cc1 | 13.9 µM
39 | CCOC(=O)c1ccc(N=Cc2c(O)n(Cc3ccccc3Cl)c(=O)[nH]c2=O)cc1 | > 50 µM (inactive)
40 | CCCC(=O)c1c(O)[nH]c(=O)[nH]c1=O | > 50 µM (inactive)
41 | CCn1nc(-c2ccccc2C)nc2c(=O)n(C)c(=O)nc1-2 | 0.636 µM and 5.67 µM
42 | CCOC(=O)c1ccc(NC(=O)c2ccc(Cl)c(Cl)c2)cc1 | > 50 µM (inactive)

Row | SMILES | IC50
43 | CC(=O)N(CN1C(=O)c2ccccc2C1=O)c1ccc(C)cc1 | > 50 µM (inactive)
44 | CC(=O)N(/N=C1\Sc2ccccc2C1=O)c1cc(C)ccc1C | > 50 µM (inactive)
45 | Cn1c(=O)[nH]c2nnc(-c3ccc4c(c3)OCO4)nc2c1=O | > 50 µM (inactive) and 4.91 µM
46 | Cn1c(=O)[nH]c(=O)c2nc(-c3ccccc3)c(-c3ccccc3)nc21 | > 50 µM (inactive)
47 | CCOC(=O)c1ccc(NC(=O)C2CCC(C)CC2)cc1 (configuration not stated) | > 50 µM (inactive)
48 | CCn1nc(-c2ccc(C(=O)OC)cc2)nc2c(=O)n(C)c(=O)nc1-2 | 0.488 µM
49 | CCOC(=O)c1ccc(NC(=O)C2CCCCC2C(=O)O)cc1 (configuration not stated) | > 50 µM (inactive)
50 | Cn1nc(-c2ccc(F)cc2)nc2c(=O)n(C)c(=O)nc1-2 | 0.325 µM
51 | CC(=O)N(CN1C(=O)c2ccc(Br)cc2C1=O)c1ccc(Cl)cc1 | > 50 µM (inactive)
52 | O=C1NC(=O)C(=Cc2cc(Cl)c(OCc3ccc(C(=O)O)cc3)c(Cl)c2)C(=O)N1 | > 50 µM (inactive)
53 | CC(=O)N(/N=C1\Sc2ccccc2C1=O)c1cccc(C)c1 | 14 µM
54 | COc1ccc(-c2nc3c(=O)n(C)c(=O)nc-3n(C)n2)cc1OC | 0.295 µM
55 | Cc1ccc(-c2nc3c(=O)n(C)c(=O)nc-3n(C)n2)cc1 | 1.35 µM
56 | COc1ccc(-c2nnc3[nH]c(=O)n(C)c(=O)c3n2)cc1OC | > 50 µM (inactive)
57 | Cc1ccccc1-c1nc2c(=O)n(C)c(=O)nc-2n(C)n1 | 1.68 µM and 4.03 µM
58 | CC(=O)N(/C=C1\Sc2ccccc2C1=O)c1cccc(C)c1 | > 50 µM (inactive)
59 | CC(=O)N(/C=C1\Sc2ccccc2C1=O)c1ccc(I)cc1 | > 50 µM (inactive)
60 | CN(C)c1ccc(-c2nnc3c(n2)c(=O)n(C)c(=O)n3C)cc1 | > 50 µM (inactive)
61 | CCn1nc(-c2ccc(C)cc2)nc2c(=O)n(C)c(=O)nc1-2 | 0.932 µM
62 | CC(=O)N(/C=C1\Sc2ccccc2C1=O)c1ccc(C)cc1 | > 50 µM (inactive)
